Reference: patent US8697705B2, “Isoindolinone derivatives” (Hoffmann-La Roche Inc., priority 2011, dated 2014)

Legend:
[1] = molecular target: T1, Recombinant human liver GK1 (GST-GK) (Homo sapiens, UniProt P35557); test: Glucokinase in vitro assay (G6PDH-coupled, NADH generation, OD340); format: biochemical; conditions: 30° C., 5 mM D-glucose, 10% dimethylsulfoxide
T1 construct: made in house; host or cells: E. coli
T1 sequence (P35557 1-466 isoform P35557-2): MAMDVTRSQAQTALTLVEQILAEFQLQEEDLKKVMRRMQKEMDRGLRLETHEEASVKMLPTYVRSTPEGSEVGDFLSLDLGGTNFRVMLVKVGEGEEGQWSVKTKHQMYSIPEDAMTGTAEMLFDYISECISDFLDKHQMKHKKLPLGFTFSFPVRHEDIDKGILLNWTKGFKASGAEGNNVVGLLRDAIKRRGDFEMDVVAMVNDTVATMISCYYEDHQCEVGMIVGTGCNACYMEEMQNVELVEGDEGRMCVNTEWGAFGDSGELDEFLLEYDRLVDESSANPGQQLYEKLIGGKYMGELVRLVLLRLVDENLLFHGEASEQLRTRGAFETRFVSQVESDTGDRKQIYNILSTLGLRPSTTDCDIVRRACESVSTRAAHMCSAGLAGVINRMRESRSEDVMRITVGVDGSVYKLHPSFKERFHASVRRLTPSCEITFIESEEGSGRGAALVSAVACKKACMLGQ
Method: Glucokinase In Vitro Assay Protocol:
Glucokinase (GK) was assayed by coupling the production of glucose-6-phosphate to the generation of NADH with glucose-6-phosphate dehydrogenase (G6PDH, 0.75-1 kunits/mg; Boehringer Mannheim, Indianapolis, Ind.) from Leuconostoc mesenteroides as the coupling enzyme (Scheme 2).
Recombinant human liver GK1 was expressed in E. coli as a glutathione S-transferase fusion protein (GST-GK) and was purified by chromatography over a glutathione-Sepharose 4B affinity column using the procedure provided by the manufacturer (Amersham Pharmacia Biotech, Piscataway, N.J.).
The assay was conducted at 30° C. in a flat bottom 96-well tissue culture plate from Costar (Cambridge, Mass.) with a final incubation volume of 120 μL. The incubation reaction contained the following: 25 mM Hepes buffer (pH 7.1), 25 mM KCl, 5 mM D-glucose, 1 mM ATP, 1.8 mM NAD, 2 mM MgCl2, 1 μM sorbitol-6-phosphate, 1 mM dithiothreitol, test drug or 10% dimethylsulfoxide, ˜7 units/ml G6PDH, and GK (see below). All organic reagents were >98% pure and were from Boehringer Mannheim with the exceptions of D-glucose and Hepes which were from Sigma Chemical Co, St Louis, Mo. Test compounds were dissolved in dimethylsulfoxide and were added to the incubation reaction minus GST-GK in a volume of 12 μL to yield a final dimethylsulfoxide concentration of 10%. This mix was pre-incubated in the temperature controlled chamber of a SPECTRAmax 250 microplate spectrophotometer (Molecular Devices Corporation, Sunnyvale, Calif.) for 10 minutes to allow temperature equilibrium and then the reaction was started by the addition of 20 μL GST-GK.
After addition of enzyme, the increase in optical density (OD) at 340 nm was monitored spectrophotometrically to determine the rate of change (OD340 per min). The GK activity (OD340/min) in control wells (10% dimethylsulfoxide minus GK activators) was compared with the activity in wells containing test GK activators, and the concentration of activator that produced a 50% increase in the activity of GK, i.e., the SC1.5, was calculated.

[2] = test system: C57BL/6J mice; test: Glucokinase activator in vivo screen: blood glucose lowering after oral gavage in mice; conditions: Mus musculus; vs. control at 2 hours post 25 mg/kg oral dose, C57B6 mice; read-out: % gluc lowering @ 2 H
Method: Glucokinase Activator In Vivo Screen Protocol in Lean Mice:
Lean C57BL/6J mice were orally dosed via gavage with Glucokinase (GK) activator following a two hour fasting period. Blood glucose determinations were made at various (e.g. 0, 1, 2, 4 and 8 hours post-oral gavage) times during the study.
C57Bl/6J mice were obtained from Jackson Laboratory (Bar Harbor, Me.) and were maintained in a light-dark cycle with lights on from 0600-1800 hr. For studies in lean mice, the mice were received at age ten weeks and given ad libitum access to control diet (LabDiet 5001 chow, PMI Nutrition, Brentwood, Mo.), and were at least age 11 weeks at the time of study. For studies in the DIO model, the mice were received at age five weeks and given ad libitum access to Bio-Sery F3282 High Fat Diet (Frenchtown, N.J.), and were at least age 16 weeks at the time of study. The experiments were conducted during the light phase of the light-dark cycle. Mice (n=6) are weighed and fasted for a two hour period prior to oral treatment. GK activators are formulated in Gelucire vehicle (Ethanol:Gelucire44/14:PEG400q.s. 4:66:30 v/w/v). For studies in lean mice, the mice were dosed orally with 5.0 μL per gram of body weight (i.e. 5 ml/kg×10.0 mg/ml formulation to equal a 50 mg/kg dose). For studies in DIO mice, the mice were dosed orally with 5.0 μL per gram of body weight (i.e. 5.0 ml/kg×5 mg/ml formulation to equal a 25 mg/kg dose). Immediately prior to dosing, a pre-dose (time zero) blood glucose reading was acquired by snipping off a small portion of the animal's tail and collecting 15 μL blood into a heparinized capillary tube for analysis. Following GK activator administration, additional blood glucose readings were taken at various time points post dose from the same tail wound. Results were interpreted by comparing the mean blood glucose values of vehicle treated mice with GK activator treated mice over the study period.
Table 2 below provides data for % glucose lowering of a representative number of compounds of the present invention vs. control at 2 hours post 25 or 50 mg/kg dose in C57B6 mice: […]

SMILES | SC1.5 (concentration of activator that produced a 50% increase in the activity of GK) [1] [µM] | change in vivo at 25 mg/kg [2] [%]
Cn1ccc(NC(=O)[C@H](CC2CCCC2)N2Cc3c(cccc3C(F)(F)F)C2=O)n1 [Example 1, (S)-3-Cyclopentyl-N-(1-methyl-1H-pyrazol-3-yl)-2-(1-oxo-4-trifluoromethyl-1,3-dihydro-isoindol-2-yl)-propionamide] | 0.187 | -39.8
O=C(Nc1ccn(C[C@@H](O)CO)n1)[C@H](CC1CCCC1)N1Cc2c(cccc2C(F)(F)F)C1=O [Example 5, (S)-3-Cyclopentyl-N-[1-((R)-2,3-dihydroxy-propyl)-1H-pyrazol-3-yl]-2-(1-oxo-4-trifluoromethyl-1,3-dihydro-isoindol-2-yl)-propionamide] | 0.074 | -50.1
O=C(Nc1ccn(C[C@H](O)CO)n1)[C@H](CC1CCCC1)N1Cc2c(cccc2C(F)(F)F)C1=O [Example 6, (S)-3-Cyclopentyl-N-[1-((S)-2,3-dihydroxy-propyl)-1H-pyrazol-3-yl]-2-(1-oxo-4-trifluoromethyl-1,3-dihydro-isoindol-2-yl)-propionamide] | 0.119 | -48.3
COCCn1ccc(NC(=O)[C@H](CC2CCCCC2)N2Cc3ccccc3C2=O)n1 [Example 8, (S)-3-Cyclohexyl-N-[1-(2-methoxy-ethyl)-1H-pyrazol-3-yl]-2-(1-oxo-1,3-dihydro-isoindol-2-yl)-propionamide] | 3.526 | 
COCCn1ccc(NC(=O)[C@H](CC2CCCC2)N2Cc3ccccc3C2=O)n1 [Example 9, (S)-3-Cyclopentyl-N-[1-(2-methoxy-ethyl)-1H-pyrazol-3-yl]-2-(1-oxo-1,3-dihydro-isoindol-2-yl)-propionamide] | 1.6 | 
COC(C)(C)Cn1ccc(NC(=O)[C@H](CC2CC2)N2Cc3ccccc3C2=O)n1 [Example 10, (S)-3-Cyclopropyl-N-[1-(2-methoxy-2-methyl-propyl)-1H-pyrazol-3-yl]-2-(1-oxo-1,3-dihydro-isoindol-2-yl)-propionamide] | 20.625 | 
CC(C)OCCn1ccc(NC(=O)[C@H](CC2CCCC2)N2Cc3ccccc3C2=O)n1 [Example 11, (S)-3-Cyclopentyl-N-[1-(2-isopropoxy-ethyl)-1H-pyrazol-3-yl]-2-(1-oxo-1,3-dihydro-isoindol-2-yl)-propionamide] | 2.091 | 
O=C(Nc1ccn(CCCO)n1)[C@H](CC1CCCC1)N1Cc2ccccc2C1=O [Example 12, (S)-3-Cyclopentyl-N-[1-(3-hydroxy-propyl)-1H-pyrazol-3-yl]-2-(1-oxo-1,3-dihydro-isoindol-2-yl)-propionamide] | 1.857 | 
COC(C)(C)Cn1ccc(NC(=O)[C@H](CC2CCCC2)N2Cc3ccccc3C2=O)n1 [Example 14, (S)-3-Cyclopentyl-N-[1-(2-methoxy-2-methyl-propyl)-1H-pyrazol-3-yl]-2-(1-oxo-1,3-dihydro-isoindol-2-yl)-propionamide] | 1.242 | 
O=C(Nc1cnc(Br)cn1)[C@H](CC1CCCC1)N1Cc2c(cccc2C(F)(F)F)C1=O [Example 16, (S)—N-(5-Bromo-pyrazin-2-yl)-3-cyclopentyl-2-(1-oxo-4-trifluoromethyl-1,3-dihydro-isoindol-2-yl)-propionamide] | 0.062 | 
O=C(O)CCn1ccc(NC(=O)[C@H](CC2CCCC2)N2Cc3c(cccc3C(F)(F)F)C2=O)n1 [Example 20, 3-[3-[(S)-3-Cyclopentyl-2-(1-oxo-4-trifluoromethyl-1,3-dihydro-isoindol-2-yl)-propionylamino]-pyrazol-1-yl]-propionic acid] | 0.457 | 
CSCC[C@@H](C(=O)Nc1cnc([C@H](O)CO)cn1)N1Cc2c(cccc2C(F)(F)F)C1=O [Example 22, (S)—N-[5-((S)-1,2-Dihydroxy-ethyl)-pyrazin-2-yl]-4-methylsulfanyl-2-(1-oxo-4-trifluoromethyl-1,3-dihydro-isoindol-2-yl)-butyramide] | 14.914 | 
CC(C)C[C@@H](C(=O)Nc1cnccn1)N1Cc2c(cccc2C(F)(F)F)C1=O [Example 23, (S)-4-Methyl-2-(1-oxo-4-trifluoromethyl-1,3-dihydro-isoindol-2-yl)-pentanoic acid pyrazin-2-ylamide] | 1.422 | 

Now from value to compound, other results behind:

SC1.5 (concentration of activator that produced a 50% increase in the activity of GK) [1] [µM] | SMILES | change in vivo at 25 mg/kg [2] [%]
0.186 | O=C(Nc1ccn(CCO)n1)[C@H](CC1CCCC1)N1Cc2c(cccc2C(F)(F)F)C1=O [Example 2, (S)-3-Cyclopentyl-N-[1-(2-hydroxy-ethyl)-1H-pyrazol-3-yl]-2-(1-oxo-4-trifluoromethyl-1,3-dihydro-isoindol-2-yl)-propionamide] | -38.8
0.244 | CC(C)(C)OC(=O)Cn1ccc(NC(=O)[C@H](CC2CCCC2)N2Cc3c(cccc3C(F)(F)F)C2=O)n1 [Example 3, {3-[(S)-3-Cyclopentyl-2-(1-oxo-4-trifluoromethyl-1,3-dihydro-isoindol-2-yl)-propionylamino]-pyrazol-1-yl}-acetic acid tert-butyl ester] | 
0.439 | O=C(O)Cn1ccc(NC(=O)[C@H](CC2CCCC2)N2Cc3c(cccc3C(F)(F)F)C2=O)n1 [Example 4, {3-[(S)-3-Cyclopentyl-2-(1-oxo-4-trifluoromethyl-1,3-dihydro-isoindol-2-yl)-propionylamino]-pyrazol-1-yl}-acetic acid] | 
0.334 | CC(C)(C)OC(=O)CCn1ccc(NC(=O)[C@H](CC2CCCC2)N2Cc3c(cccc3C(F)(F)F)C2=O)n1 [Example 19, 3-{3-[(S)-3-Cyclopentyl-2-(1-oxo-4-trifluoromethyl-1,3-dihydro-isoindol-2-yl)-propionylamino]-pyrazol-1-yl}-propionic acid tert-butyl ester] | 
2.966 | CC(C)C[C@@H](C(=O)Nc1cnc([C@H](O)CO)cn1)N1Cc2c(cccc2C(F)(F)F)C1=O [Example 24, (S)-4-Methyl-2-(1-oxo-4-trifluoromethyl-1,3-dihydro-isoindol-2-yl)-pentanoic acid [5-((S)-1,2-dihydroxy-ethyl)-pyrazin-2-yl]-amide] | 
